Assay type in all cases: cell-based
In test [1] the test system is S. aureus. Kind of test: in vitro agar Petri dish dilution test, Sa. As to conditions: Staphylococcus aureus, 100% inhibition. From the text:
(§1) The compounds of this invention have antimicrobial utility. In conventional in vitro agar Petri dish dilution tests, the following compounds and some corresponding art compounds gave 100% inhibition of the following organisms at the indicated concentrations in parts per million.

A further test relates to E. coli. Description: in vitro agar Petri dish dilution test, Ec. As to conditions: Escherichia coli, 100% inhibition.
Description: as §1

In another test the test system is C. albicans. Description: in vitro agar Petri dish dilution test, Ca. As to conditions: Candida albicans, 100% inhibition.
Description: as §1

In the next test the test system is T. mentagrophytes. Kind of test: in vitro agar Petri dish dilution test, Tm. As to conditions: Trichophyton mentagrophytes, 100% inhibition.
Description: as §1
Tm = T. mentagrophytes -

A further test relates to A. niger. Description: in vitro agar Petri dish dilution test, An. As to conditions: Aspergillus niger, 100% inhibition.
Description: as §1

Test [2] concerns B. subtilis. Kind of test: in vitro agar Petri dish dilution test, Bs. As to conditions: Bacillus subtilis, 100% inhibition.
Description: as §1

The test system of another test is A. aerogenes. Description: in vitro agar Petri dish dilution test, Aa. As to conditions: Klebsiella aerogenes, 100% inhibition.
Description: as §1

Test [3] relates to C. pelliculosa. Description: in vitro agar Petri dish dilution test, Cp. As to conditions: Hansenula anomala, 100% inhibition.
Description: as §1

A further test has as its system P. pullulans. Description: in vitro agar Petri dish dilution test, Pp. As to conditions: 100% inhibition.
Description: as §1

Test [4] relates to Pseudomonas Sp. Strain 10. Kind of test: in vitro agar Petri dish dilution test, Ps 10. As to conditions: 100% inhibition.
Description: as §1
Ps 10 = Pseudomonas Sp. Strain 10

The subject of a further test is M. phlei. Description: in vitro agar Petri dish dilution test, Mp. As to conditions: Mycolicibacterium phlei, 100% inhibition.
Description: as §1

A further test relates to R. nigricans. Description: in vitro agar Petri dish dilution test, Rn. As to conditions: Rhizopus stolonifer, 100% inhibition.
Description: as §1

The subject of another test is T. Sp. Madison P42. Description: in vitro agar Petri dish dilution test, Tr 42. As to conditions: 100% inhibition.
Description: as §1
Tr 42 = T. Sp. Madison P42

A further test deals with S. typhosa. Kind of test: in vitro agar Petri dish dilution test, St. As to conditions: for MIC: 100% inhibition.
Description: as §1

In the next test the test system is C. IPS. Kind of test: in vitro agar Petri dish dilution test, CI. As to conditions: 100% inhibition.
Description: as §1

The test system of test [5] is S. aureus. Description: in vitro agar Petri dish dilution test, Sa. As to conditions: Staphylococcus aureus.
In test [6] the test system is B. subtilis. Kind of test: in vitro agar Petri dish dilution test, Bs. As to conditions: Bacillus subtilis.
For test [7], the system named is C. pelliculosa. Kind of test: in vitro agar Petri dish dilution test, Cp. As to conditions: Hansenula anomala.

SMILES strings stand for the structures. ≈ marks a conversion by molar mass, not a printed value.

For the molecule `O=S(=O)(Br)c1ccc(Br)s1` [5-Br, 5-Bromo-2-thiophenesulfonyl Bromide], the MIC (as a rule, the least concentration at which growth counts as inhibited) in the test with S. aureus [1] is 500 µg/mL; in the test on E. coli it was 500 µg/mL; against C. albicans it was 100 µg/mL; in the test on T. mentagrophytes it was 100 µg/mL; in the test with A. niger, 100 µg/mL; in the test on B. subtilis [2], 100 µg/mL. The MIC against A. aerogenes stood at 500 µg/mL; in the test on C. pelliculosa [3] it was 100 µg/mL; against P. pullulans, 100 µg/mL; in test [4] it was 100 µg/mL; against M. phlei, 500 µg/mL; in the test on R. nigricans, 100 µg/mL. This molecule returned an MIC in the test on T. Sp. Madison P42 of 100 µg/mL.

For the molecule `O=S(=O)(Br)c1cc(Br)c(Br)s1` [4,5-Br2], the MIC in the test on S. aureus [1] worked out at 50 µg/mL (≈ 130 µM); in the test on C. albicans, 100 µg/mL (≈ 260 µM); in the test on T. mentagrophytes, 100 µg/mL (≈ 260 µM); against A. niger, 100 µg/mL (≈ 260 µM); with B. subtilis [2], 50 µg/mL (≈ 130 µM); in the test on A. aerogenes it was 100 µg/mL (≈ 260 µM). In addition, the MIC worked out at 100 µg/mL (≈ 260 µM) in the test on C. pelliculosa [3]; 100 µg/mL (≈ 260 µM) in the test with P. pullulans; 50 µg/mL (≈ 130 µM) with S. typhosa; 50 µg/mL (≈ 130 µM) in [4]; 100 µg/mL (≈ 260 µM) in the test on T. Sp. Madison P42.

As for `CCc1ccc(S(=O)(=O)Cl)s1` [5-C2 H5], the inhibition – broadly, how much of the control response was suppressed – at 500 ppm in the test with S. typhosa came to 50%.

`O=S(=O)(Cl)c1sc(Br)cc1Br` [3,5-Br2, reference compound]: the MIC with S. aureus [1], in the test with C. albicans, in the test on T. mentagrophytes, against A. niger, against B. subtilis [2] and with A. aerogenes was more than 100 µg/mL throughout. The MIC (against C. pelliculosa [3]; in the test with P. pullulans; in the test with S. typhosa; in test [4]; against C. IPS; with T. Sp. Madison P42) was more than 100 µg/mL in each case.

For `CCCCc1ccc(S(=O)(=O)Br)s1` [5-butyl], the MIC against S. aureus [1] came to 500 µg/mL (≈ 1770 µM); against E. coli, 500 µg/mL (≈ 1770 µM); against C. albicans it was 500 µg/mL (≈ 1770 µM); against T. mentagrophytes it was 100 µg/mL (≈ 353 µM); against A. niger, 100 µg/mL (≈ 353 µM); against B. subtilis [2] it was 100 µg/mL (≈ 353 µM). Moreover, the minimum inhibitory concentration (MIC) against A. aerogenes is 500 µg/mL (≈ 1770 µM); against C. pelliculosa [3] it was 100 µg/mL (≈ 353 µM); in the test on P. pullulans, 100 µg/mL (≈ 353 µM); in test [4], 500 µg/mL (≈ 1770 µM); against R. nigricans it was 100 µg/mL (≈ 353 µM); in the test with T. Sp. Madison P42, 100 µg/mL (≈ 353 µM).

For the molecule `O=S(=O)(Br)c1cccs1` [H, 2-Thiophenesulfonyl Bromide], the MIC in the test with S. aureus [1] worked out at 500 µg/mL; in the test on E. coli, 100 µg/mL; against C. albicans, 100 µg/mL; in the test on T. mentagrophytes, 100 µg/mL; in the test with A. niger, 100 µg/mL; with B. subtilis [2], 100 µg/mL. The MIC (against A. aerogenes; with C. pelliculosa [3]; against P. pullulans; in test [4]; in the test with M. phlei; with R. nigricans) was 100 µg/mL throughout. In addition, inhibition of growth in the test on T. Sp. Madison P42 (MIC) required 100 µg/mL.

For `CCc1ccc(S(=O)(=O)Br)s1` [5-C2 H5], the MIC came out at 500 µg/mL (≈ 1960 µM) against S. aureus [1]; 500 µg/mL (≈ 1960 µM) in the test on E. coli; 500 µg/mL (≈ 1960 µM) against C. albicans; 100 µg/mL (≈ 392 µM) in the test on T. mentagrophytes; 100 µg/mL (≈ 392 µM) against A. niger; 100 µg/mL (≈ 392 µM) in the test with B. subtilis [2]. For the same molecule, the MIC with A. aerogenes was determined as 500 µg/mL (≈ 1960 µM); against C. pelliculosa [3] it was 100 µg/mL (≈ 392 µM); against P. pullulans, 100 µg/mL (≈ 392 µM); in test [4] it was 100 µg/mL (≈ 392 µM); in the test on R. nigricans, 100 µg/mL (≈ 392 µM); against T. Sp. Madison P42, 100 µg/mL (≈ 392 µM).

Consider `O=S(=O)(Cl)c1sc(Br)c(Br)c1Br` [3,4,5-Br3, reference compound], for which the MIC against S. aureus [1], with C. albicans, in the test on T. mentagrophytes, in the test on A. niger, against B. subtilis [2] and against A. aerogenes was more than 100 µg/mL in each case. In the test on C. pelliculosa [3], this molecule came in with an MIC of more than 100 µg/mL.

In the case of `CCCCc1ccc(S(=O)(=O)Cl)s1` [5-butyl, reference compound], the MIC against E. coli was more than 500 µg/mL; against C. albicans it was more than 500 µg/mL; against T. mentagrophytes it was 500 µg/mL (≈ 2090 µM); with A. niger, more than 500 µg/mL; in the test on A. aerogenes, more than 500 µg/mL; in the test on P. pullulans it was more than 500 µg/mL. This molecule displayed an MIC against S. typhosa of more than 500 µg/mL. In addition, the inhibition at 500 ppm in the test on S. aureus [5], in the test on B. subtilis [6] and with C. pelliculosa [7] was 50% throughout.

Turning to `O=S(=O)(Cl)c1cc(Br)c(Br)s1` [4,5-Br2, reference compound], the MIC was more than 100 µg/mL in the test with S. aureus [1]; more than 100 µg/mL with C. albicans; 100 µg/mL (≈ 294 µM) with T. mentagrophytes; more than 100 µg/mL in the test on A. niger; more than 100 µg/mL with B. subtilis [2]; more than 100 µg/mL in the test on A. aerogenes. For the same molecule, the MIC against C. pelliculosa [3] turned out to be 100 µg/mL (≈ 294 µM).

With `O=S(=O)(Cl)c1cccs1` [H, 2-thiophenesulfonyl chloride, reference compound], the minimal inhibitory concentration (MIC) against S. aureus [1], against E. coli, against C. albicans, in the test on T. mentagrophytes, against A. niger and in the test with B. subtilis [2] was more than 500 µg/mL throughout. In addition, the MIC in the test with A. aerogenes was more than 500 µg/mL; with C. pelliculosa [3] it was more than 500 µg/mL; in the test on P. pullulans, more than 500 µg/mL; against S. typhosa, more than 500 µg/mL; in [4] it was more than 500 µg/mL; against M. phlei, 500 µg/mL. In addition, the MIC with R. nigricans, in the test on C. IPS and in the test on T. Sp. Madison P42 was more than 500 µg/mL in each case.

Consider `O=S(=O)(Br)c1sc(Br)cc1Br` [3,5-Br2], for which the MIC worked out at 50 µg/mL (≈ 130 µM) against S. aureus [1]; 100 µg/mL (≈ 260 µM) in the test with C. albicans; 50 µg/mL (≈ 130 µM) with T. mentagrophytes; 50 µg/mL (≈ 130 µM) against B. subtilis [2]; 50 µg/mL (≈ 130 µM) against A. aerogenes; 50 µg/mL (≈ 130 µM) in the test with C. pelliculosa [3]. The minimal inhibitory concentration (MIC) against P. pullulans turned out to be 100 µg/mL (≈ 260 µM); against S. typhosa it was 50 µg/mL (≈ 130 µM); in [4], 50 µg/mL (≈ 130 µM); against T. Sp. Madison P42, 100 µg/mL (≈ 260 µM).

With `Cc1ccc(S(=O)(=O)Cl)s1` [5-CH3], the inhibition at 500 ppm in the test on S. typhosa was 50%.

On to `O=S(=O)(Br)c1ccc(Cl)s1` [5-Cl, 5-Chloro-2-thiophenesulfonyl Bromide], for which the MIC worked out at 500 µg/mL in the test with S. aureus [1]; 100 µg/mL in the test with E. coli; 100 µg/mL against C. albicans; 100 µg/mL against T. mentagrophytes; 100 µg/mL against A. niger; 500 µg/mL in the test on B. subtilis [2]. The MIC against A. aerogenes is 500 µg/mL; against C. pelliculosa [3], 100 µg/mL; in the test on P. pullulans, 100 µg/mL; in test [4], 500 µg/mL; against M. phlei, 500 µg/mL; against R. nigricans, 100 µg/mL. Inhibition of growth in the test on T. Sp. Madison P42 (MIC) required 100 µg/mL.

Consider `O=S(=O)(Br)c1sc(Br)c(Br)c1Br` [3,4,5-Br3], for which the MIC with S. aureus [1] is 50 µg/mL (≈ 108 µM); with C. albicans, 100 µg/mL (≈ 216 µM); against T. mentagrophytes it was 50 µg/mL (≈ 108 µM); against A. niger, 50 µg/mL (≈ 108 µM); against B. subtilis [2] it was 50 µg/mL (≈ 108 µM); against A. aerogenes it was more than 100 µg/mL. In addition, the MIC (in the test on C. pelliculosa [3]; against P. pullulans; in test [4]; in the test with T. Sp. Madison P42) was 50 µg/mL (≈ 108 µM) each time.

In the case of `Cc1ccc(S(=O)(=O)Br)s1` [5-CH3], the MIC against S. aureus [1] is 100 µg/mL (≈ 415 µM); in the test on C. albicans, more than 100 µg/mL; against T. mentagrophytes, more than 100 µg/mL; in the test with A. niger, more than 100 µg/mL; in the test with B. subtilis [2] it was more than 100 µg/mL; with A. aerogenes, more than 100 µg/mL. The minimal inhibitory concentration (MIC) in the test with C. pelliculosa [3] is more than 100 µg/mL; in the test on P. pullulans it was more than 100 µg/mL; with S. typhosa it was 50 µg/mL (≈ 207 µM); in test [4] it was 50 µg/mL (≈ 207 µM); in the test on C. IPS it was more than 100 µg/mL; with T. Sp. Madison P42, more than 100 µg/mL.

The record behind these values is patent publication US4264774A, “2-Thiophenesulfonyl bromides” (The Dow Chemical Company, priority 1976, dated 1981).
